In article PMC5446775, “Interactions of 172 plant extracts with human organic anion transporter 1 (SLC22A6) and 3 (SLC22A8): a study on herb-drug interactions” (PeerJ, 2017):
Where “and” joins values, the source holds several entries; their conditions need not be identical. Equal values may be shown once.

Key:
[1] = Pharmacokinetics of furosemide in rats with and without Juncus effusus extract; type: in vivo; conditions: FS 10 mg/kg i.v. alone
hOAT3 = molecular target: T1, hOAT3 (Homo sapiens, UniProt Q8TCC7); test: Inhibition of 6-CF uptake in HEK-OAT3 cells (screening at 5 μg/ml and concentration-dependent inhibition); type: cell-based; parameters: Invitrogen (Flp-In system, cells); 6-CF uptake OAT3, Figure 2 raw data (single replicates) / OAT3-mediated 6-CF uptake (Inhibitory effects of butanol extracts on OAT-mediated 6-CF), raw replicate values / OAT3-mediated 6-CF uptake (Inhibitory effects of aqueous extracts on OAT-mediated 6-CF), raw replicate values: unit not given here
T1 sequence (Q8TCC7 1-542): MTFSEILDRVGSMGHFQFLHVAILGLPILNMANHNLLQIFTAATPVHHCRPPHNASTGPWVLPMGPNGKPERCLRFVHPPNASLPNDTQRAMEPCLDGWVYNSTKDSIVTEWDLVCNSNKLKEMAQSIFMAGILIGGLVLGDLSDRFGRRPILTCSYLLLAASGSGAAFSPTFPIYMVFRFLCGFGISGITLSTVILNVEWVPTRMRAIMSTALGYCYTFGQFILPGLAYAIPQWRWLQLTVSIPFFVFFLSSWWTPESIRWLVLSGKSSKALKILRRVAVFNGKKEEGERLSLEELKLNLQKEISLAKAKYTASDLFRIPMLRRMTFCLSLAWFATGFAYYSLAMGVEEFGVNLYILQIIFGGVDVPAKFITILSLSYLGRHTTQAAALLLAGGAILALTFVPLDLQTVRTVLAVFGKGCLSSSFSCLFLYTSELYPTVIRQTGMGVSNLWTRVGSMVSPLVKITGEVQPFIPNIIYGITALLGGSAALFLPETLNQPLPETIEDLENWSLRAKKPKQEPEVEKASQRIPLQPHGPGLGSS
Experimental: The stock solutions of plant extracts were prepared using DMSO with a final concentration of 1 mg/ml. The initial concentration for each extract was set at 5 μg∕ml. Every well contained the same concentration of DMSO (0.5%) to eliminate the potential effect of solvent. […] Before the initial screening, the reproducibility of uptake experiments was evaluated. […] Due to the large number of samples, for the initial screening study, each uptake experimental sample was measured in triplicates in the same assay.
After the uptake was terminated at 4 min and 10 min for OAT1 and OAT3 respectively, intracellular fluorescence was determined as above.

SMILES	Clobs of FS [1]	V z_obs of FS [1]	6-CF fluorescence of cells (fluorescence images) (hOAT3; HEK-OAT3, co-incubation with probenecid 30 μM)	OAT3-mediated 6-CF uptake (Inhibitory effects of aqueous extracts on OAT-mediated 6-CF), raw replicate values (hOAT3; aqueous extracts, screening at 5 μg/ml, HEK-OAT3 cells, three replicate columns, Control about 100, Prob = positive control)	OAT3-mediated 6-CF uptake (Inhibitory effects of butanol extracts on OAT-mediated 6-CF), raw replicate values (hOAT3; butanol extracts, screening at 5 μg/ml, HEK-OAT3 cells, three replicate columns, Control about 100, Prob = positive control)	6-CF uptake OAT3, Figure 2 raw data (single replicates) (hOAT3; probenecid 30 μM positive control, 6-CF 4 μM, 10 min, HEK-OAT3)
NS(=O)(=O)c1cc(C(=O)O)c(NCc2ccco2)cc1Cl [FS, furosemide]	1.0 ± 1.0 L/min/kg × 10^−3	146.9 ± 12.1 L/kg ×10^−3	–	–	–	–
CCCN(CCC)S(=O)(=O)c1ccc(C(=O)O)cc1 [probenecid, Probenecid]	–	–	almost completely abolished	2.375 and 2.144 and 0.9311	2.375 and 2.144 and 0.9311	2.375 and 2.144 and 0.9311
